Assay results taken from patent publication US20180057505A1, “BICYCLIC HETEROARYL COMPOUNDS USEFUL AS INHIBITORS OF THE PAR-2 SIGNALING PATHWAY” (VERTEX PHARMACEUTICALS INCORPORATED, priority 2015, published 2018).

How the values were obtained:
Assay type in all cases: cell-based
PAR2 (HT-29 cells) [1] = target: T1, PAR2 (HT-29 cells) (Homo sapiens, UniProt P55085); assay: Ca FLIPR TETRA assay, ANTAGONIST mode, activator 8 μM SLIGKV; conditions: HT-29 cells; activator 8 μM SLIGKV; Method A: maximal concentration of antagonist 0.1, 1 or 2 μM
T1 construct: host or cells: HT-29
T1 sequence (P55085 26-397): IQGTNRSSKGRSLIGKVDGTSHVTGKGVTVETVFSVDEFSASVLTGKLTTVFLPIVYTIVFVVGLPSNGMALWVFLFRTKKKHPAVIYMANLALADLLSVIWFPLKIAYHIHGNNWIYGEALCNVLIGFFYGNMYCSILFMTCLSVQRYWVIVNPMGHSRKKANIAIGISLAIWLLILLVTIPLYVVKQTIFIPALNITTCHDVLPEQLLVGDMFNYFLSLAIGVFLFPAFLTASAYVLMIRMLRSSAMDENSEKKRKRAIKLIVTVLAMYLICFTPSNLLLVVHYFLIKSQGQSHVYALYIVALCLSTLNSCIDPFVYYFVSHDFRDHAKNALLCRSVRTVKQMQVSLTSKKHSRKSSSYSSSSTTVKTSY
Procedure, shortened: (§1)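 Antagonist mode, HT-29: cells O/N 37 °C, 1% FBS; calcium 5 dye 45 min 37 °C + 15 min RT; cpd (DMSO, HBSS-diluted) 30 min RT; activator at final conc. (8 μM SLIGKV / 1 U/mL thrombin / 3.1 U/mL trypsin / 0.6 μM UTP); FLIPR Tetra Ca2+ read.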

[2] = tested on: Thrombin-stimulated Ca2+ response in HT-29 cells; assay: Ca FLIPR TETRA assay, ANTAGONIST mode, activator 1 U/mL Thrombin; conditions: HT-29 cells, activator 1 U/mL Thrombin
Procedure, shortened: as §1

PAR2 (HT-29 cells) [3] = target: T1, PAR2 (HT-29 cells); assay: Ca FLIPR TETRA assay, ANTAGONIST mode, activator 3.1 U/mL trypsin; conditions: HT-29 cells; activator 3.1 U/mL trypsin; Method A: maximal concentration of antagonist 0.1, 1 or 2 μM
Procedure, shortened: as §1

[4] = tested on: UTP-stimulated Ca2+ response in HT-29 cells; assay: Ca FLIPR TETRA assay, ANTAGONIST mode, activator 0.6 μM UTP; conditions: HT-29 cells, activator 0.6 μM UTP
Procedure, shortened: as §1

| Structure (SMILES) | IC50 (PAR2 (HT-29 cells) [1]) [nM] | IC50 ([2]; Homo sapiens) [nM] | IC50 (PAR2 (HT-29 cells) [3]) [nM] | IC50 ([4]; Homo sapiens) [nM] | IC50 [2] [nM] | IC50 [4] [nM] |
| --- | --- | --- | --- | --- | --- | --- |
| CC(C)(CN1CCN(C(=O)c2cc3nc(-c4ccc(Cl)c(F)c4)cc(C(C)(C)C)c3o2)C(C)(C)C1=O)C(=O)O [Example I-484] | 0.5 | > 1100 | 1.1 | > 1100 | – | – |
| Cc1ccnc(N2CCN(C(=O)c3cc4nc(-c5ccc(Cl)c(F)c5)cc(C(C)(C)C)c4o3)C(C)(C)C2)c1C(=O)O [Example I-485] | 16 | > 2000 | 18 | > 2000 | – | – |
| CC1(C)CCC(c2cc(C(C)(C)C)c3oc(C(=O)N4CCNC(=O)CC4(C)C)cc3n2)CC1 [Example I-486] | 42 | – | 70 | – | > 2000 | > 2000 |
| Cc1ccc(N2CCN(C(=O)c3cc4nc(-c5ccc(Cl)c(F)c5)cc(C(C)(C)C)c4o3)C(C)(C)C2)nc1C(=O)O [Example I-487] | 0.2 | > 2000 | 0.3 | > 2000 | – | – |
| CC(C)(C)c1cc(-c2ccc(Cl)c(F)c2)nc2cc(C(=O)N3CCN(c4cc(C(=O)O)ncn4)CC3(C)C)oc12 [Example I-490] | 3.1 | > 2000 | 3.9 | > 2000 | – | – |
| CC(C)(C)c1cc(-c2ccc(Cl)c(F)c2)nc2cc(C(=O)N3CCN(c4ccncc4C(=O)O)CC3(C)C)oc12 [Example I-491] | 190 | > 2000 | 230 | > 2000 | – | – |
| Cc1cnc(N2CCN(C(=O)c3cc4nc(-c5ccc(Cl)c(F)c5)cc(C(C)(C)C)c4o3)C(C)(C)C2)c(C(=O)O)c1 [Example I-492] | 7.5 | > 2000 | 7.3 | > 2000 | – | – |
| Cc1ccc(N2CCN(C(=O)c3cc4nc(-c5ccc(Cl)cc5)cc(C(C)(C)C)c4o3)C(C)(C)C2=O)nc1C(=O)O [Example I-495] | 13 | > 2000 | 15 | > 2000 | – | – |
| CC(C)(C)c1cc(-c2ccc(Cl)c(F)c2)nc2cc(C(=O)N3CCN(C(=O)CC4(C(=O)O)CCOCC4)CC3(C)C)oc12 [Example I-497] | 2.2 | > 2000 | 2.2 | > 2000 | – | – |
| COc1nc(N2CCN(C(=O)c3cc4nc(-c5ccc(Cl)c(F)c5)cc(C(C)(C)C)c4o3)C(C)(C)C2)ccc1C(=O)O [Example I-498] | 0.3 | > 2000 | 0.3 | > 2000 | – | – |
| CC(C)(C)c1cc(-c2ccc(Cl)c(F)c2)nc2cc(C(=O)N3CCN(C(=O)[C@@H]4CCCC[C@@H]4C(=O)O)CC3(C)C)oc12 [Example I-500] | 0.4 | > 2000 | 0.5 | > 2000 | – | – |
| Cc1cc(C(=O)N2CCN(C(=O)c3cc4nc(-c5ccc(Cl)c(F)c5)cc(C(C)(C)C)c4o3)C(C)(C)C2)[nH]n1 [Example I-504] | 1.2 | > 2000 | 1.7 | > 2000 | – | – |
| CC(C)(C)c1cc(-c2ccc(Cl)c(F)c2)nc2cc(C(=O)N3CCN(C(=O)[C@@H]4CCCC[C@H]4C(=O)O)CC3(C)C)oc12 [Example I-506] | 23 | > 2000 | 21 | > 2000 | – | – |
| CC(C)(C)c1cc(-c2ccc(Cl)c(F)c2)nc2cc(C(=O)N3CCN(S(C)(=O)=O)CC3(C)C)oc12 [Example I-508] | 8.1 | > 2000 | 10 | > 2000 | – | – |

Continued, values first:

| IC50 (PAR2 (HT-29 cells) [1]) [nM] | IC50 ([2]; Homo sapiens) [nM] | IC50 (PAR2 (HT-29 cells) [3]) [nM] | IC50 ([4]; Homo sapiens) [nM] | IC50 [2] [nM] | IC50 [4] [nM] | Structure (SMILES) |
| --- | --- | --- | --- | --- | --- | --- |
| 0.7 | > 500 | 1.8 | > 500 | – | – | CC(C)(C)c1cc(-c2ccc(Cl)cc2)nc2cc(C(=O)N3CCN(c4cncc(C(=O)O)c4)CC3(C)C)oc12 [Example I-477] |
| 1.9 | > 500 | 4.1 | > 500 | – | – | Cc1nc(N2CCN(C(=O)c3cc4nc(-c5ccc(Cl)cc5)cc(C(C)(C)C)c4o3)C(C)(C)C2)oc1C(=O)O [Example I-478] |
| 0.2 | 1500 | 0.3 | 1030 | – | – | CC(C)(C)c1cc(-c2ccc(Cl)cc2)nc2cc(C(=O)N3CCN(c4cccc(C(=O)O)n4)CC3(C)C)oc12 [Example I-479] |
| 0.3 | > 1250 | 0.4 | > 1250 | – | – | CC(C)(C)c1cc(-c2ccc(Cl)cc2)nc2cc(C(=O)N3CCN(c4nc(C(=O)O)co4)CC3(C)C)oc12 [Example I-481] |
| 0.2 | > 2000 | 0.2 | 1200 | – | – | COc1ccc(N2CCN(C(=O)c3cc4nc(-c5ccc(Cl)c(F)c5)cc(C(C)(C)C)c4o3)C(C)(C)C2)nc1C(=O)O [Example I-482] |
| 3.6 | > 2000 | 2.8 | > 2000 | – | – | CC(C)(C)c1cc(-c2ccc(Cl)cc2)nc2cc(C(=O)N3CCN(c4ncccn4)C(=O)C3(C)C)oc12 [Example I-483] |
| 6.5 | > 2000 | 14 | > 2000 | – | – | Cc1ccc(N2CCN(C(=O)c3cc4nc(C5CCC(C)(C)CC5)cc(C(C)(C)C)c4o3)C(C)(C)C2=O)nc1C(=O)O [Example I-488] |
| 115 | > 2000 | 270 | > 2000 | – | – | CC1(C)CCC(c2cc(C(C)(C)C)c3oc(C(=O)N4CCC(=O)NCC4(C)C)cc3n2)CC1 [Example I-489] |
| 0.4 | > 2000 | 0.4 | > 2000 | – | – | CC(C)(C)c1cc(-c2ccc(Cl)cc2)nc2cc(C(=O)N3CCN(C(=O)CC4(C(=O)O)CCCC4)CC3(C)C)oc12 [Example I-493] |
| > 2000 | > 2000 | 0.1 | > 2000 | – | – | Cc1cc(C(=O)O)nc(N2CCN(C(=O)c3cc4nc(-c5ccc(Cl)c(F)c5)cc(C(C)(C)C)c4o3)C(C)(C)C2)c1 [Example I-494] |
| 0.4 | > 2000 | 0.6 | > 2000 | – | – | Cc1nc(N2CCN(C(=O)c3cc4nc(C5CCC(C)(C)CC5)cc(C(C)(C)C)c4o3)C(C)(C)C2)ccc1C(=O)O [Example I-496] |
| 3.6 | > 2000 | 5 | > 2000 | – | – | CC(C)(C)c1cc(-c2ccc(Cl)cc2)nc2cc(C(=O)N3CCN(C(=O)CC4(C(=O)O)CCOCC4)CC3(C)C)oc12 [Example I-499] |
| 0.1 | – | 0.1 | – | > 2000 | > 2000 | CC(C)(C)c1cc(-c2ccc(Cl)c(F)c2)nc2cc(C(=O)N3CCN(c4nc(C(=O)O)ccc4F)CC3(C)C)oc12 [Example I-501] |
| 0.2 | – | 0.2 | – | > 2000 | > 2000 | CC(C)(C)c1cc(-c2ccc(Cl)cc2)nc2cc(C(=O)N3CCN(c4nc(C(=O)O)ccc4F)CC3(C)C)oc12 [Example I-502] |
| 0.2 | – | 0.3 | – | > 2000 | > 2000 | CC1(C)CCC(c2cc(C(C)(C)C)c3oc(C(=O)N4CCN(c5nc(C(=O)O)ccc5F)CC4(C)C)cc3n2)CC1 [Example I-503] |
| 14 | > 2000 | 9.6 | > 2000 | – | – | Cn1cnnc1N1CCN(C(=O)c2cc3nc(-c4ccc(Cl)cc4)cc(C(C)(C)C)c3o2)C(C)(C)C1 [Example I-505] |
| 0.6 | > 2000 | 0.5 | > 2000 | – | – | CC(C)(C)c1cc(-c2ccc(Cl)c(F)c2)nc2cc(C(=O)N3CCN(C(=O)NS(=O)(=O)c4ccccc4)CC3(C)C)oc12 [Example I-507] |
